In publication PMC7845692 (Frontiers in Pharmacology, 2020):
Structures can show the parent of a compound that is named as a salt. Where two headings read alike, the source gives them in different places.

Key:
in vitro [1] = conditions: human
Human coronavirus OC43 = assay: HCoV-OC43 immunofluorescent assay (IFA) against N protein in HCT-8 cells; format: cell-based; conditions: for EC50: read-out: Human coronavirus OC43 EC50 (IFA); for Human coronavirus OC43 Selectivity index: CC50/EC50, HCT-8 cells
in vitro [2] = conditions: cat
Method: (§2) The serotype II FIPV Taiwan isolate NTU156 strain, a kind gift from National Taiwan University, was propagated and titrated in Fcwf-4 cells ([Lin et al., 2009]). The EC50 for anti-FIPV activity and CC50 for cell cytotoxicity were determined as previously described ([Yang et al., 2020b]).

[3] = test system: Feline infectious peritonitis virus; assay: anti-FIPV activity, cytopathic effect by visualization in Fcwf-4 cells; conditions: for EC50: Alphacoronavirus 1, read-out: Feline infectious peritonitis virus EC50 CPE/visualization; for Feline infectious peritonitis virus Selectivity index: CC50/EC50, Fcwf-4 cells
Method: as §2

Human coronavirus 229E = assay: HCoV-229E cytopathic effect, crystal violet absorbance in MRC-5 cells; conditions: CC50/EC50, MRC-5 cells
in vitro [4] = conditions: human, MRC-5 cells
SARS-CoV-2 [5] = assay: SARS-CoV-2 cytopathic effect by visualization in Vero E6 cells; format: cell-based; conditions: for SARS-CoV-2 Selectivity index (CPE/visualization): CC50/EC50, Vero E6 cells
Method: (§1) CPE was performed as described ([Wu et al., 2004]). For IFA, Vero E6 cells (BCRC number: 60476; derived from ATCC CRL-1586) were treated with each compound at the indicated concentration for 1 h at 37°C. The cells were adsorbed with SARS-CoV-2 (TCDC#4) (sequence available on the GISAID website) at an MOI = 0.01 for 1 h at 37°C. After virus adsorption, the cells were washed with PBS and fresh medium containing each compound at the indicated concentration was added. After 2 days, cells were fixed with 4% paraformaldehyde and permeabilized with 0.5% Triton X-100. The cells were stained with anti-SARS-CoV-2 N protein antibody, provided by Dr. An-Suei Yang of the Genomics Research Center, Academia Sinica, and goat anti-human IgG-Alexa Fluor 488 (A11013, Invitrogen) (in green). The nuclei were counter stained with DAPI (in blue) (D1306, Invitrogen). The N protein expression was measured using a high-content image analysis system (Molecular Devices). The cell viability was determined by Cell Counting Kit-8 (CCK-8) (Sigma-Aldrich, cat #96992). EC50 and CC50 values were calculated by Prism software.

HCoV-229E [6] = assay: HCoV-229E viral yield, end point dilution assay / TCID50; conditions: MRC-5, MOI 0.05; for complete reduction of HCoV-229E viral yield: at 100, 300 and 600 nM respectively (dbq33b, dbq33b4p7, PI09); for concentration giving complete reduction of HCoV-229E viral yield: reduction 6–7 log
[7] = Vero E6 cell viability (CCK-8); format: cell-based; conditions: African green monkey, Vero E6 cells; read-out: SARS-CoV-2 CC50 CCK-8
Method: as §1

[8] = Vero E6 cytotoxicity by visualization; format: cell-based; conditions: African green monkey, Vero E6 cells; read-out: SARS-CoV-2 CC50 Visualization
Method: as §1

[9] = cell cytotoxicity by visualization (FIPV host cells); conditions: cat
Method: as §2

SARS-CoV-2 [10] = assay: SARS-CoV-2 IFA against N protein in Vero E6 cells; format: cell-based; conditions: for SARS-CoV-2 Selectivity index (IFA/CCK-8): CC50/EC50, Vero E6 cells
Method: as §1

HCoV-229E [11] = assay: HCoV-229E viral RNA (ORF1, ORF N) by semi-RT-qPCR in MRC-5 cells; format: cell-based, Human coronavirus 229E; conditions: MRC-5, MOI 1, 30 h.p.i., 10–300 nM, dose dependent
Method: These experiments were performed as described ([Yang et al., 2007b]). Mock or HCoV-229E infected (MOI of 1) lysates were processed and prepared at 30 h.p.i. without or with compound treatment. The total RNA was extracted with TRIzol reagent (Invitrogen). The relative viral RNA expression levels were determined by semi-RT-qPCR, analyzed with the ImageJ Analyzer program (http://imagej.nih.gov/ij/index.html), and normalized with the housekeeping gene GAPDH. The primers used to amplify the PCR products were 5′-GGCGAGGTGGAATTTGTTTA-3′ and 5′-ACCTTTAAGCCACCATGTGC-3′ for ORF1; 5′-TCTGCCAAGAGTCTTGCTCG-3′ and 5′-AGCATAGCAGCTGTTGACGG-3′ for ORF N. The amplification of target cDNA was conducted under the following conditions: 25 cycles of 95°C for 30 s, 55°C for 20 s, and 72°C for 30 s for ORF N; 29 cycles of 95°C for 30 s, 55°C for 20 s, and 72°C for 30 s for ORF1, and 35 cycles of 95°C for 30 s, 55°C for 20 s, and 72°C for 30 s for GAPDH. The final PCR products were subjected to electrophoresis on 2% agarose gel containing ethidium bromide along with DNA markers.

HCoV-OC43 = HCoV-OC43 viral yield, end point dilution assay / TCID50; format: cell-based, Human coronavirus OC43; conditions: for concentration accomplishing complete reduction of HCoV-OC43 viral yield: HCT-8, MOI 0.05, reduction ∼7–8 log
[12] = HCT-8 cell viability (MTS); conditions: human, HCT-8 cells
SARS-CoV-2 [13] = assay: microbe, parasite or virus in culture; format: cell-based
[14] = Betacoronavirus 1, OC43, HCT-8 cells, MOI 0.05, 72 h.p.i., means ± SD
[15] = Betacoronavirus 1, OC43, HCT-8, 72 h
[16] = Severe acute respiratory syndrome coronavirus 2, Vero C1008, 48 h, read-out: SARS-CoV-2 EC50 IFA, Vero E6 cells, MOI 0.01, 2 d.p.i., N protein
[17] = Severe acute respiratory syndrome coronavirus 2, Vero C1008, Vero E6 cells, means from duplicate, read-out: SARS-CoV-2 EC50 CPE/visualization
[18] = Vero E6 cells, MOI 0.01, 2 d.p.i., N protein, read-out: SARS-CoV-2 EC50 IFA
[19] = HCT-8, MOI 0.05, supernatant 72 h.p.i., at 30, 100 and 300 nM respectively (dbq33b, dbq33b4p7, PI09)

SMILES | CC50 (in vitro [1]) [nM] | EC50 (Human coronavirus OC43; [14]) [nM] | Human coronavirus OC43 Selectivity index (Human coronavirus OC43) | CC50 (in vitro [2]) [nM] | EC50 [3] [nM] | Feline infectious peritonitis virus Selectivity index [3] | EC50 (Human coronavirus OC43; [15]) [nM] | Human coronavirus 229E Selectivity index (Human coronavirus 229E) | CC50 (in vitro [4]) [nM] | complete reduction of HCoV-229E viral yield (HCoV-229E [6]) | concentration giving complete reduction of HCoV-229E viral yield (HCoV-229E [6]) [nM] | CC50 [7] [nM] | CC50 [8] [nM] | CC50 [9] [nM] | SARS-CoV-2 Selectivity index (IFA/CCK-8) (SARS-CoV-2 [10]) | EC50 (SARS-CoV-2 [10]; [16]) [nM] | effect on HCoV-229E viral genome replication and subgenomic viral RNA syntheses (RT-PCR ORF1, ORF N) (HCoV-229E [11]) | concentration accomplishing complete reduction of HCoV-OC43 viral yield (HCoV-OC43) [nM] | SARS-CoV-2 Selectivity index (CPE/visualization) (SARS-CoV-2 [5]) | EC50 (SARS-CoV-2 [5]; [17]) [nM] | other results
C[C@H]1O[C@@H](O[C@H]2[C@@H](O)C[C@H](O[C@H]3[C@@H](O)C[C@H](O[C@H]4CC[C@@]5(C)[C@H](CC[C@@H]6[C@@H]5CC[C@]5(C)[C@@H](C7=CC(=O)OC7)CC[C@]65O)C4)O[C@@H]3C)O[C@@H]2C)C[C@H](O)[C@@H]1O [Digitoxin, digitoxin] | 909 ± 123 | 88 ± 16 | 10.3 | 825 ± 195 | 97 ± 6 | 8.5 | – | – | – | – | – | – | – | – | – | – | – | – | – | – | –
C[C@]12CCC(=NOCCN)C[C@@H]1C(=O)C[C@@H]1[C@@H]2CC[C@]2(C)C(=O)CC[C@@H]12 [Istaroxime, istaroxime hydrochloride] | – | – | 5.9 | 7120 ± 750 | 2160 | 3.3 | 5420 ± 268 | – | – | – | – | – | – | – | – | – | – | – | – | – | CC50 at 72 h (in vitro [1]): 32000 nM
COc1cc2c3c(c4cc(OC)c(OC)cc4c2cc1OC)CN1CCCC1C3 (stereo not shown) [PI09] | > 10000 | 68 ± 3 | >147 | – | 62 ± 25 | 102.8 | – | 93 | 6640 | 6–7 log of magnitudes | 600 | 3550 | 5000 | 6380 ± 2250 | 46 | 77 | inhibited HCoV-229E viral genome replication and subgenomic viral RNA syntheses | 300 | – | – | EC50 (SARS-CoV-2 [5]; Severe acute respiratory syndrome coronavirus 2, Vero C1008, read-out: SARS-CoV-2 EC50 CPE/visualization): 78 nM; EC50 (SARS-CoV-2 [10]; read-out: SARS-CoV-2 EC50 IFA, Vero E6 cells, MOI 0.01, 2 d.p.i., N protein): 76.8 nM; complete reduction of HCoV-OC43 viral yield (HCoV-OC43): 7–8 log of magnitudes
CCN1Cc2c(c3ccc(OC)cc3c3cc(OC)c(OC)cc23)C(O)C1C (stereo not shown) [dbq33b4p7] | – | – | >179 | – | 20 ± 7 | 312.5 | 56 ± 6 | 290 | 7360 | 6–7 log of magnitudes | 300 | 2970 | 2500 | 6250 ± 2160 | 93 | 32 | inhibited HCoV-229E viral genome replication and subgenomic viral RNA syntheses | 100 | 125 | 20 | EC50 (SARS-CoV-2 [10]; [18]): 31.9 nM; CC50 at 72 h [12]: > 10000 nM; complete reduction of HCoV-OC43 viral yield (HCoV-OC43; [19]): 7–8 log of magnitudes
CCN1Cc2c(c3ccc(OC)cc3c3cc(OC)c(OC)cc23)C(O)C1 (stereo not shown) [dbq33b] | – | – | >610 | – | 8 ± 2 | 390.6 | 16 ± 5 | 264 | 1710 | 6–7 log of magnitudes | 100 | 5100 | 1250 | 3120 | 367 | 14 | inhibited HCoV-229E viral genome replication and subgenomic viral RNA syntheses | 30 | 500 | 2.5 | EC50 (SARS-CoV-2 [13]; Severe acute respiratory syndrome coronavirus 2, Vero C1008, read-out: SARS-CoV-2 plaque assay EC50, Vero E6 cells): 14 nM; EC50 (SARS-CoV-2 [13]; Severe acute respiratory syndrome coronavirus 2, Vero C1008, read-out: SARS-CoV-2 plaque assay EC50, Vero E6 cells, 5–7 days, Figure 5B-b): 13.8 ± 0.3 nM; EC50 (SARS-CoV-2 [10]; [18]): 13.9 nM; CC50 at 72 h [12]: > 10000 nM; complete reduction of HCoV-OC43 viral yield (HCoV-OC43; [19]): 7–8 log of magnitudes
